Data as given in patent US4080467A, “Pharmaceutical compositions comprising 1,3-dithiolan-2-ylidene malonate derivatives” (Nihon Nohyaku Co., Ltd., priority 1976, dated 1978).

Key:
[1] = system: Acute Liver Damage associated with Centrilobular Necrosis (carbon tetrachloride); assay: Protective effect on acute liver damage associated with centrilobular necrosis (carbon tetrachloride model); assay type: in vivo, mice (four-week-old male, dd strain); conditions: 250 mg/kg oral 6 h before CCl4, average of 5 to 6 mice
[2] = system: Chronic Liver Damage (thioacetamide); assay: Therapeutic effect on chronic liver damage (thioacetamide model), BSP test; assay type: in vivo, rats (Sprague Dawley strain); conditions: 12 times TAA 100 mg/kg, then diet + 0.2% compound
Method: In the tests of this Example, TAA was repeatedly administered to animals to prepare test animals suffering from somewhat chronic liver damages, and then the present compounds were administered thereto to know whether or not the compounds were effective against chronic hepatitis.
The degree of the liver damage and the therapeutic effects of the compounds were evaluated according to BSP test. The BSP test is a method in which BSP (sulfobromophthalein sodium), a dye known to be quickly metabolized in and excreted from the liver, is intravenously injected into animals and, after a definite period of time, the blood is taken out to measure the amount of BSP remaining in the plasma. In case the animals are suffering from the liver damage, the dye will remain, according to the degree of the damage, at the stage where a major portion of BSP is metabolized and excreted in the case of normal animals.
Five groups of rats (Sprague Dawley strain) were treated as follows:
Group A: The rats were orally administered with 100 mg/kg of thioacetamide,at 3 days intervals for 36 days (12 times of the administration), then were submitted for 10 days to a normal diet.
Group B: The rats were orally administered with 100 mg/kg of thioacetamide at 3 days intervals for 36 days (12 times of the administration), then were submitted for 10 days to the normal diet + 0.2% of compound 4.
Group C: The rats were orally administered with 100 mg/kg of thioacetamide at 3 days intervals for 36 days (12 times of the administration) then were submitted for 10 days to the normal diet + 0.2% of compound 2.
Group D: The rats were orally administered with 100 mg/kg of thioacetamide at 3 days intervals for 36 days (12 times of the administration) then were submitted for 10 days to the normal diet + 0.2% of anethol trithion.
Group E: The rats were submitted to the normal diet as the control.
Five rats were sacrified from each group at appropriate intervals for BSP (sulfobromophthalein) test, the results of which were shown as amounts (mg) of BSP remaining in 1 dl of plasma.

[3] = system: acute liver damage associated with periportal necrosis (allyl alcohol); assay: Protective effect on acute liver damage associated with periportal necrosis (allyl alcohol model), BSP test; assay type: in vivo, male mouse (4 week-old dd-strain); conditions: 100 mg/kg oral 6 h before allyl alcohol 0.075 ml/kg; 24 h after
Method: The compound of this invention or anethol trithion was orally administered to the male mouse (4 week-old dd-strain) at the dose of 100 mg/kg. Six hours after it, allyl alcohol was orally administered at the dose of 0.075 ml/kg. Twenty four hours after it, the animals were sacrificed to collect blood samples. The residual quantity of BSP was measured by BSP test, from which the protective effect of the compound of this invention was evaluated.

[4] = system: acute liver damage associated with discrete lobular necrosis (D-galactosamine); assay: Protective effect on acute hepatitis with mesenchymal reaction and discrete lobular necrosis (D-galactosamine model); assay type: in vivo, male rat (SD strain); conditions: 100 mg/kg oral 6 h before D-galactosamine
Method: D-Galactosamine is a compound which induces a discrete lobular necrosis associated with mesenchymal reaction similar to the change observed in human viral hepatitis, so that it is frequently used in producing a model for viral hepatitis.
The compound of this invention or anethol trithion was administered orally to the male rat (SD strain) at the dose of 100 mg/kg. Six hours after it, D-galacetosamine was intraperitoneally administered at the dose of 600 mg/kg. Four hours after it, an additional 300 mg/kg was administered intraperitoneally. Eight hours after it, the animals were sacrificed to collect the blood samples. P-GPT activity and triglyceride in the liver were measured to evaluate the effect of the compound of this invention.

[5] = Effect on concentration of ethyl alcohol in the blood; assay type: in vivo, mice; conditions: 250 mg/kg oral 6 h before ethyl alcohol 1,000 mg/kg
Method: The test compounds are dissolved or suspended in olive oil and administered orally at the dose of 250 mg/kg to the mice. After 6 hours, 1,000 mg/kg of ethyl alcohol was given orally. Blood was taken in a capillary from caudal vein at the time indicated in the results. The plasma was obtained by centrifugation. The concentration of ethyl alcohol in the plasma was measured by FID type gas liquid chromatography. Five mice were used for each group.

[6] = Effect on glucose metabolism (blood sugar after glucose load); assay type: in vivo, mice; conditions: for Blood Sugar: 250 mg/kg oral 6 h before glucose 4.0 g/kg
Method: The test compounds dissolved in olive oil and administered orally at the dose of 250 mg/kg to the mice. After 6 hours, 4.0 g/kg of glucose was orally administered. The same amount of glucose was given to the control animals. 0.02 ml of blood was taken from caudal vein of the mice at 30, 60, 90 and 120 min. after glucose administration. Blood sugar was measured by the procedure of Somogyi-Nelson. Number of animals used was 5 to 6 mice for each treatment.

For CC(C)OC(=O)C(C(=O)OC(C)C)=C1SCCS1 [Compound 4, Diisopropyl 1,3-dithiolan-2-yliden malonate], the “p-GPT (plasma glutamic-pyruvic transaminase activity)” value ([1]; 24 h after CCl4, values over 1,000 regarded as 1,000) was 23 Karmen units, the “Liver Damage Index” value ([1]; 0 normal, 2 slightly recognized, 4 clearly observable damage, 6 heavy damage) was 0.2 and the “Concentration of BSP in plasma” value ([2]; 2 Days) was 7.6 ± 1.1 mg/dL. For the same compound, the “Concentration of BSP in plasma” value ([2]; 5 Days) was 3.8 ± 0.5 mg/dL, the “Concentration of BSP in plasma” value ([2]; 10 Days) was 0.3 ± 0.1 mg/dL and the “Index of hepatotoxicity: BSP (residual quantity of BSP)” value [3] was 16±2.3. For the same compound, the Triglyceride in liver [4] was 4.6 ± 0.73 mg/g, the p-GPT [4] was 63±23 Karmen unit and the “Concentration of Ethyl alcohol in Plasma” value ([5]; 0 min) was 9±4 ppm. For the same compound, the “Concentration of Ethyl alcohol in Plasma” value ([5]; 5 min) was 727±84 ppm, the “Concentration of Ethyl alcohol in Plasma” value ([5]; 15 min) was 715±146 ppm and the “Concentration of Ethyl alcohol in Plasma” value ([5]; 30 min) was 430±105 ppm. For the same compound, the “Concentration of Ethyl alcohol in Plasma” value ([5]; 60 min) was 13±11 ppm, the “Blood Sugar (percent of 0 min value)” value ([6]; 0 min) was 100% and the “Blood Sugar” value ([6]; 0 min) was 134 ± 24.8 mg/dL. The “Blood Sugar” value ([6]; 30 min) was 258 ± 22.2 mg/dL, the “Blood Sugar” value ([6]; 60 min) was 232 ± 13.0 mg/dL and the “Blood Sugar” value ([6]; 90 min) was 190 ± 23.6 mg/dL. The “Blood Sugar” value ([6]; 120 min) was 152 ± 23.4 mg/dL, the “Blood Sugar (percent of 0 min value)” value ([6]; 30 min) was 192% and the “Blood Sugar (percent of 0 min value)” value ([6]; 60 min) was 173%. For the same compound, the “Blood Sugar (percent of 0 min value)” value ([6]; 90 min) was 142% and the “Blood Sugar (percent of 0 min value)” value ([6]; 120 min) was 113%.
